Reference: US12414960B2, “Analogues of oleuropein and oleacein and uses thereof” (Attica Sciences Ltd., priority 2020, dated 2025)

Key:
[1] = system: HeLa cervical cancer cells; test: XTT cell growth assay, HeLa; type: cell-based, human; conditions: Homo sapiens, HeLa, 24 h, NS = not statistically significant, read-out: Effectiveness to suppress HeLa cell growth (cell growth inhibition)
From the text: (§1) The XTT assay is used to measure cellular metabolic activity as an indicator of cell viability, proliferation and cytotoxicity. This non-radioactive, colorimetric assay system was first described by Scudiero, et al. in 1988 (Paull, Kenneth D. et al., J Heterocycl Chem, 1988, 25: 911-914; Scudiero, Dominic A. et al., Cancer Res, 1988, 48: 4827-4833) and improved in subsequent years by several other investigators (Weislow, Owen S. et al., J Natl Cancer Inst, 1989, 81(8): 577-586; Roehm, N. W. et al., J Immunol Methods, 1991, 142: 257-265).
(§2) The XTT assay is based on the reduction of a yellow tetrazolium salt (sodium 3′-[1-(phenylaminocarbonyl)-3,4-tetrazolium]-bis (4-methoxy6-nitro) benzene sulfonic acid hydrate or XTT) to an orange formazan dye by metabolically active cells (FIG. 8). The formazan dye formed is soluble in aqueous solutions and is directly quantified using a scanning multiwell spectrophotometer (ELISA reader). An increase in number of living cells results in an increase in the overall activity of mitochondrial dehydrogenases in the sample. This increase directly correlates to the amount of orange formazan formed, as monitored by the absorbance. Reduced number of living cells leads to reduced metabolism of quaternary salt and therefore reduced absorption.
(§3) Cell viability was assessed using the XTT assay kit (Roche, Mannheim, Germany) as described previously (Kouka, Paraskevi et al., Oxid Med Cell Longev. 2019, Article ID 1870965). Briefly, cancer cells per well were cultured in a 96-well plate in Dulbecco's modified Eagle's medium (DMEM). Following a 24 h incubation, 5, 10 and 50 μM of the tested GS compound was diluted in a serum-free DMEM and administered for 24 h. Subsequently, 50 μL of the XTT reagent (50:1) was added to each well. After 4 h of incubation, the absorbance was monitored at 450 nm and also at 630 nm as a reference wavelength in a BioTek ELx800 microplate reader (BioTek Instruments Inc., Winooski, VT, USA). As a negative control, samples containing serum-free DMEM only were used.
HeLa is a human immortal cell line used in scientific research. It is the oldest and most commonly used human cell line. The line was derived from cervical cancer cells taken on Feb. 8, 1951 from Henrietta Lacks, a patient who died of cancer on Oct. 4, 1951.
(§4) The effects of exemplary compounds on cancer cell lines and one non-tumorigenic cell line (control) were investigated using a high throughput screening assay. More specifically, the effects of the GS compounds on cell growth was evaluated by the XTT assay for cell lines HepG2, HeLa, MCF7 ER+, MDA-MB-231, and MKN-45, and by the Cell Glo luminescence assay for cell lines MIA PaCa-2, HCT-116, MCF-10A, and PANC-1.

[2] = system: MCF-7 ER+ breast cancer cells; test: XTT cell growth assay, MCF-7 ER+; type: cell-based, human; conditions: Homo sapiens, MCF7, 24 h, NS = not statistically significant, read-out: Effectiveness to suppress MCF7 cell growth (cell growth inhibition)
From the text: as §1, §2, §3
MCF-7 ER+ is a human breast cancer cell line isolated in 1970 from a person. Prior to MCF-7, it was not possible for cancer researchers to obtain a mammary cell line that was capable of living longer than a few months.
as §4

[3] = system: MDA-MB-231 triple negative breast cancer cells; test: XTT cell growth assay, MDA-MB-231; type: cell-based, human; conditions: Homo sapiens, MDA-MB-231, 24 h, NS = not statistically significant, read-out: Effectiveness to suppress MDA-MB-231 cell growth (cell growth inhibition)
From the text: as §1, §2, §3
MDA-MB-231 is a human epithelial breast cancer cell line that was established from a pleural effusion of a person with a metastatic mammary adenocarcinomal and is one of the most commonly used breast cancer cell lines in medical research laboratories.
as §4

[4] = system: MCF-10A non-tumorigenic mammary epithelial cells; test: Cell Glo luminescence cell growth assay, MCF-10A normal cells; type: cell-based, human
From the text: The CellTiter-Glo® Luminescent Cell Viability Assay (Promega Corporation; Madison, WI) is a homogeneous method of determining the number of viable cells in culture based on quantitation of the ATP present, an indicator of metabolically active cells. The homogeneous assay procedure involves adding the single reagent (CellTiter-Glo® Reagent) directly to cells cultured in serum-supplemented medium. The homogeneous “add-mix-measure” format results in cell lysis and generation of a luminescent signal proportional to the amount of ATP present. The amount of ATP is directly proportional to the number of cells present in culture.
Cancer cells (3,000 cells/well) were harvested in a 96-well plate. Then, the cancer cells were treated with GS compounds and incubated for 24 hours. The MT Cell Viability Substrate, NanoLuc® Enzyme and cell culture medium was equilibrated to 37° C. The 2× RealTime-Glo™ reagent was prepared by diluting the MT Cell Viability Substrate and NanoLuc® Enzyme in 37° C. cell culture medium to a 2× concentration for each reagent. […] The cells were kept for ˜20 minutes in the cell culture incubator and then luminescence was measured by using a plate-reading luminometer. […]
as §4, with “PANC-1. […]” for “PANC-1.”
The effect of GS27 on normal cell growth was evaluated using the MCF-10A cell line. […]
GS27, NDI-091143 and Nexletol (10 μM) were used to treat normal epithelial cells MCF-10A cells. […] Forty-eight hours post-treatment, the growth of MCF-10A cells was evaluated by CellTiter-Glo® Luminescent Cell Viability Assay, as discussed in Example 29.

[5] = ABTS radical cation scavenging assay; type: biochemical; conditions: NS = not statistically significant
From the text: The method of estimating antioxidant capacity, based on the ability to interact with the ABTS.+ radical cation was first performed by Miller et al. in 1993 (Miller, Nicholas et al., Clinical Science, 1993, 84: 407-412, “A novel method for measuring the antioxidant capacity and its application to monitoring the antioxidant status in premature neonates”). The mechanism of interaction of the antioxidant agents to be examined with the ABTS.+ radical is similar to that of the DPPH. radical, which can be inactivated either by the addition of an electron or by the addition of a hydrogen atom. However, unlike the DPPH. radical, which is a stable radical from the beginning, the ABTS.+ radical must be produced by the oxidation of ABTS. Thus, in order to estimate the antioxidant capacity of a substance, the formation of the ABTS.+ radical must first precede and the addition of the substance to be examined must follow. The addition of the antioxidant agent is performed after the production of the root ABTS.+ to avoid the interaction of the antioxidant agents with the oxidizing agents used for the oxidation of ABTS.
The oxidation of ABTS takes place either through chemical reactions with various reagents or through the action of enzymes such as peroxidases. The ABTS.+ radical from the moment it is formed is stable, has a green color and absorbs at 730 nm. When a substance with antioxidant activity is added to the solution, then the ABTS.+ radical is reduced by the addition of a hydrogen (or electron) atom, resulting in reduced visual absorption.
To assess the antioxidant capacity of the samples, the oxidation of ABTS was performed enzymatically through the action of horseradish peroxidase (HRP), in the presence of H2O2 (FIG. 3)
The anti-oxidant capacity of the GS compounds was evaluated by performing the ABTS assay as previously described (Kouka, Paraskevi et al., Oxid Med Cell Longev. 2019, Article ID 1870965). Briefly, in a total reaction volume of 1 mL in distilled water (dH2O), ABTS.^+ (1 mM), H2O2 (30 μM), and horseradish peroxidase (HRP) (6 μM) in 50 mM phosphate-buffered saline were added. The solution was incubated for 45 min at room temperature (RT) in the dark. Finally, 10 μL of the tested GS compound at various concentrations was added, and the absorbance was monitored on a Hitachi U-1900 radio beam spectrophotometer (serial no. 2023-029; Hitachi Ltd.) at 730 nm. In each experiment, a blank without the HRP was used, while the ABTS.^+ radical solution without the extract was used as the control. The RSC percentage of the tested extracts was calculated using the following equation: RSC (%)=[(ODcontrol−ODcompound)/ODcontrol]×100, where ODcontrol and OD sample are the optical density (OD) values of the control and the test sample, respectively.

[6] = Deoxyribose degradation assay (hydroxyl radical scavenging); type: biochemical; conditions: NS = not statistically significant
Protocol: The hydroxyl radical (OH.) is an extremely reactive in biological systems and has been implicated as highly damaging species in free radical pathology, capable of damaging biomolecules of the living cells. These radical combines with nucleotides in DNA and cause strand breakage leading to carcinogenesis, mutagenesis and cytotoxicity. Hydroxyl radical (OH.) scavenging capacity of an extract is directly related to its antioxidant activity.
The effect of extracts on hydroxyl radicals was assayed by using the deoxyribose method. 2-Deoxyribose is degraded on exposure to hydroxyl radicals generated by Fenton's reaction. The ability to neutralize the OH. is estimated as the rate of inhibition of the oxidation of 2-deoxyribose by the OH. (FIG. 5).
The measurement of the hydroxyl radical scavenging activity was evaluated for each of the GS compound by evaluating the pink chromogen absorption at 532 nm by spectrophotometry as described previously (Perjesi, Pal et al., Open Med Chem J., 2011, 5: 61-67

[7] = system: HepG2 liver cancer cells; test: XTT cell growth assay, HepG2; type: cell-based, human; conditions: Homo sapiens, HepG2, 24 h, NS = not statistically significant, read-out: Effectiveness to suppress HepG2 cell growth (cell growth inhibition)
From the text: as §1, §2, §3
Hep G2 (or HepG2) is a human liver cancer cell line. Hep G2 is an immortal cell line which was derived from the liver tissue of an adolescent with a well-differentiated hepatocellular carcinoma. Hep G2 cells are a suitable in vitro model system for the study of polarized human hepatocytes.
as §4

[8] = system: MKN-45 gastric cancer cells; test: XTT cell growth assay, MKN-45; type: cell-based, human; conditions: Homo sapiens, MKN-45, 24 h, NS = not statistically significant, read-out: Effectiveness to suppress MKN-45 cell growth (cell growth inhibition)
From the text: as §1, §2, §3
MKN-45 is a human gastric adenocarcinoma, established from the poorly differentiated adenocarcinoma of the stomach (medullary type) of a person.
as §4

C/C=C(/C=O)[C@@H](CC=O)CC(=O)OC [GS16, (3S,4E)-4-Formyl-3-(2-oxoethyl)hex-4-enoic acid methyl ester]
inhibition at 50 µM [1]: 72.6%
inhibition at 50 µM [2]: 26.6%
inhibition at 50 µM [3]: 35%
inhibition at 10 µM ([4]; Homo sapiens, MCF-10A, 10 uM, 24 h, normal cells, safety control, NS = not statistically significant, read-out: Effectiveness to suppress MCF10A cell growth (cell growth inhibition)): 10.1%

C/C=C(/C=O)[C@@H](CC=O)CC(=O)OCCc1cccc(O)c1 [GS20, (3S,4E)-4-formyl-3-(2-oxoethyl)-4-hexenoic acid 3-hydroxyphenethyl ester]
ABTS Radical Cation Scavenging Assay IC50 [5]: 50.2 μg extract/mL
Deoxyribose Degradation Assay IC50 [6]: 20 μg extract/mL
inhibition at 50 µM [7]: 50%
inhibition at 50 µM [1]: 56.4%
inhibition at 50 µM [2]: 36.1%
inhibition at 50 µM [3]: 56.4%
inhibition at 50 µM [8]: 84.1%

CC(C)(CCCCCC(O)CCCCCC(C)(C)C(=O)O)C(=O)O [Nexletol, reference compound]
effect on MCF-10A normal cell growth ([4]; 10 μM, forty-eight hours post-treatment): inhibitory effect
